This note sets out measurements from patent publication US12043632B2, “6-heteroaryloxy benzimidazoles and azabenzimidazoles as JAK2 inhibitors” (Ajax Therapeutics, Inc., priority 2020, dated 2024).

The target in the assay is T1, JAK2 (JH1domain-catalytic, Y1007F,Y1008F) kinase (Homo sapiens, UniProt O60674, Y1007F/Y1008F).
T1 construct: JAK2 (JH1domain-catalytic, Y1007F,Y1008F) kinase was expressed as N-terminal fusion; made in house; host or cells: transiently transfected HEK293 cells
The assay can be described thus: JAK2 JH1 Domain Binding Assay. The following applies: qPCR readout. In general terms: Quantitative PCR measures a nucleic acid by following its amplification.

T1 sequence (O60674 849-1124 Y1007F/Y1008F limits assumed): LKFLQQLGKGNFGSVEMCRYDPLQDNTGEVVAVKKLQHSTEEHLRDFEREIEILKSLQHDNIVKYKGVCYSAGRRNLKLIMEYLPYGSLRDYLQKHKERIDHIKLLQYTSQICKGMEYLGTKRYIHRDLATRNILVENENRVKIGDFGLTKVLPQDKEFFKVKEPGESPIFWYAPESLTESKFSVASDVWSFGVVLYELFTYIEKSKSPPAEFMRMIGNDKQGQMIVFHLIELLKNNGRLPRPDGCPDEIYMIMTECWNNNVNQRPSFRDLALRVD

In general, Kd refers to the constant that tells how readily two partners part at equilibrium. With `Cn1c(Nc2cc(C3CC3)cn([C@H]3C[C@@H](O)C3)c2=O)nc2ncc(Oc3cnn4cc(F)ccc34)c(Cl)c21` [Example I-151, cis-3-((7-chloro-6-((6-fluoropyrazolo[1,5-a]pyridin-3-yl)oxy)-1-methyl-1H-imidazo[4,5-b]pyridin-2-yl)amino)-5-cyclopropyl-1-(3-hydroxycyclobutyl)pyridin-2(1H)-one], the Kd was less than 10 nM.

Take `Cn1c(Nc2cc(C(C)(C)C)n([C@H]3CCOC3)n2)nc2ncc(Oc3cnn4cnnc4c3)c(Cl)c21` [Example I-16, (S)-6-([1,2,4]triazolo[4,3-b]pyridazin-7-yloxy)-N-(5-(tert-butyl)-1-(tetrahydrofuran-3-yl)-1H-pyrazol-3-yl)-7-chloro-1-methyl-1H-imidazo[4,5-b]pyridin-2-amine]: the Kd lay in the range of 10 to 50 nM. The result for `COCCOc1cn2ncc(Oc3cnc4nc(Nc5cc(C(F)(F)F)cn(C)c5=O)n(C)c4c3Cl)c2cn1` [Example I-365, 3-((7-chloro-6-((6-(2-methoxyethoxy)pyrazolo[1,5-a]pyrazin-3-yl)oxy)-1-methyl-1H-imidazo[4,5-b]pyridin-2-yl)amino)-1-methyl-5-(trifluoromethyl)pyridin-2(1H)-one] reads less than 10 nM; that for `Cn1cc(C(F)(F)F)cc(Nc2nc3ncc(Oc4cnn5cc(NCCN6CCC(F)(F)C6)ncc45)c(Cl)c3n2C)c1=O` [Example I-403, 3-((7-chloro-6-((6-((2-(3,3-difluoropyrrolidin-1-yl)ethyl)amino)pyrazolo[1,5-a]pyrazin-3-yl)oxy)-1-methyl-1H-imidazo[4,5-b]pyridin-2-yl)amino)-1-methyl-5-(trifluoromethyl)pyridin-2(1H)-one], less than 10 nM. The figure for `Cn1cc(C(F)(F)F)cc(Nc2nc3ncc(Oc4cnn5cc(OCCN6CCOCC6)ncc45)c(Cl)c3n2C)c1=O` [Example I-376, 3-((7-chloro-1-methyl-6-((6-(2-morpholinoethoxy)pyrazolo[1,5-a]pyrazin-3-yl)oxy)-1H-imidazo[4,5-b]pyridin-2-yl)amino)-1-methyl-5-(trifluoromethyl)pyridin-2(1H)-one] is less than 10 nM; for `CNc1cn2ncc(Oc3cnc4nc(Nc5cc(C(F)(F)F)cn(C)c5=O)n(C)c4c3)c2cn1` [Example I-404, 1-methyl-3-((1-methyl-6-((6-(methylamino)pyrazolo[1,5-a]pyrazin-3-yl)oxy)-1H-imidazo[4,5-b]pyridin-2-yl)amino)-5-(trifluoromethyl)pyridin-2(1H)-one] it is 10 to 50 nM. On to `COCCn1cc(C2CC2)cc(Nc2nc3ncc(Oc4cnn5ccncc45)c(OC)c3n2C)c1=O` [Example I-58, 5-cyclopropyl-3-((7-methoxy-1-methyl-6-(pyrazolo[1,5-a]pyrazin-3-yloxy)-1H-imidazo[4,5-b]pyridin-2-yl)amino)-1-(2-methoxyethyl)pyridin-2(1H)-one], for which the Kd was less than 10 nM. In turn, `Cn1c(Nc2cc(C(C)(C)C)n(CC#N)n2)nc2ncc(Oc3cnn4ccncc34)c(C(F)F)c21` [Example I-63, 2-(5-(tert-butyl)-3-((7-(difluoromethyl)-1-methyl-6-(pyrazolo[1,5-a]pyrazin-3-yloxy)-1H-imidazo[4,5-b]pyridin-2-yl)amino)-1H-pyrazol-1-yl)acetonitrile] registered a Kd of 10 to 50 nM. The figure for `CNc1nccn2ncc(Oc3cnc4nc(Nc5cc(C(F)(F)F)cn([C@H]6CCOC6)c5=O)n(C)c4c3Cl)c12` (single isomer, unassigned) [Example I-262-a] is less than 10 nM. For the molecule `COc1c(Oc2cnn3ccnc(OC)c23)cnc2nc(Nc3cc(C4CC4)cn(C)c3=O)n(C)c12` [Example I-211, 5-cyclopropyl-3-((7-methoxy-6-((4-methoxypyrazolo[1,5-a]pyrazin-3-yl)oxy)-1-methyl-1H-imidazo[4,5-b]pyridin-2-yl)amino)-1-methylpyridin-2(1H)-one], the Kd was less than 10 nM. The figure for `Cn1c(Nc2cc(N3CC[C@@H](O)C3)cc(C(F)(F)F)c2)nc2ncc(Oc3cnn4ccncc34)c(Cl)c21` [Example I-238, (R)-1-(3-((7-chloro-1-methyl-6-(pyrazolo[1,5-a]pyrazin-3-yloxy)-1H-imidazo[4,5-b]pyridin-2-yl)amino)-5-(trifluoromethyl)phenyl)pyrrolidin-3-ol] is less than 10 nM. The figure for `CNc1nccn2ncc(Oc3cnc4nc(Nc5cc(C(F)(F)F)c(CN(C)C)cc5F)n(C)c4c3Cl)c12` [Example I-235, 7-chloro-N-(4-((dimethylamino)methyl)-2-fluoro-5-(trifluoromethyl)phenyl)-1-methyl-6-((4-(methylamino)pyrazolo[1,5-a]pyrazin-3-yl)oxy)-1H-imidazo[4,5-b]pyridin-2-amine] is 10 to 50 nM. The molecule `CNc1nccn2ncc(Oc3cnc4nc(Nc5cc(C(F)(F)F)cn([C@H]6CCCOC6)c5=O)n(C)c4c3Cl)c12` (single isomer, unassigned) [Example I-245-a] displayed a Kd of less than 10 nM. The figure for `CNc1cn2ncc(Oc3cnc4nc(Nc5cc(N6CCN(C)CC6)cc(C(F)(F)F)c5)n(C)c4c3Cl)c2cn1` [Example I-351, 7-chloro-1-methyl-6-((6-(methylamino)pyrazolo[1,5-a]pyrazin-3-yl)oxy)-N-(3-(4-methylpiperazin-1-yl)-5-(trifluoromethyl)phenyl)-1H-imidazo[4,5-b]pyridin-2-amine] is 10 to 50 nM; for `CO[C@H]1CCN(Cc2ccc(Nc3nc4ncc(Oc5cnn6ccncc56)c(Cl)c4n3C)cc2C(F)(F)F)C1` [Example I-175, (S)-7-chloro-N-(4-((3-methoxypyrrolidin-1-yl)methyl)-3-(trifluoromethyl)phenyl)-1-methyl-6-(pyrazolo[1,5-a]pyrazin-3-yloxy)-1H-imidazo[4,5-b]pyridin-2-amine] it is 10 to 50 nM. Regarding `COCCOc1cn2ncc(Oc3cnc4nc(Nc5cc(C(F)(F)F)cn(C)c5=O)n(C)c4c3C#N)c2cn1` [Example I-367, 6-((6-(2-methoxyethoxy)pyrazolo[1,5-a]pyrazin-3-yl)oxy)-1-methyl-2-((1-methyl-2-oxo-5-(trifluoromethyl)-1,2-dihydropyridin-3-yl)amino)-1H-imidazo[4,5-b]pyridine-7-carbonitrile], the Kd was less than 10 nM. The result for `CNc1nccn2ncc(Oc3cnc4nc(Nc5cc(C(F)(F)F)cn([C@@H]6CCCOC6)c5=O)n(C)c4c3Cl)c12` (single isomer, unassigned) [Example I-245-b] reads 10 to 50 nM; that for `Cn1c(Nc2cc(C(C)(C)C)n([C@@H]3CCOC3)n2)nc2ncc(Oc3cnn4ccnc4c3)c(Cl)c21` [Example I-14, (R)—N-(5-(tert-butyl)-1-(tetrahydrofuran-3-yl)-1H-pyrazol-3-yl)-7-chloro-6-(imidazo[1,2-b]pyridazin-7-yloxy)-1-methyl-1H-imidazo[4,5-b]pyridin-2-amine], 10 to 50 nM; that for `Cn1c(Nc2cc(C3CC3)cn([C@H]3CC[C@@H]3O)c2=O)nc2ncc(Oc3cnn4ccccc34)c(Cl)c21` (single isomer, unassigned) [Example I-99-a], less than 10 nM. The result for `Cn1c(Nc2cc(C(C)(C)C)n([C@H]3CCO[C@@H]3CO)n2)nc2ncc(Oc3cnn4ccncc34)c(Cl)c21` [Example I-66, ((2S,3S)-3-(5-(tert-butyl)-3-((7-chloro-1-methyl-6-(pyrazolo[1,5-a]pyrazin-3-yloxy)-1H-imidazo[4,5-b]pyridin-2-yl)amino)-1H-pyrazol-1-yl)tetrahydrofuran-2-yl)methanol] reads less than 10 nM. The result for `CN(C)C1CCN(Cc2cc(Nc3nc4ncc(Oc5cnn6ccncc56)c(Cl)c4n3C)cc(C(F)(F)F)c2)C1` (stereo in doubt) [Example I-272, (R)-7-chloro-N-(3-((3-(dimethylamino)pyrrolidin-1-yl)methyl)-5-(trifluoromethyl)phenyl)-1-methyl-6-(pyrazolo[1,5-a]pyrazin-3-yloxy)-1H-imidazo[4,5-b]pyridin-2-amine] reads less than 10 nM.

For the molecule `CNc1nccn2ncc(Oc3cnc4nc(Nc5cc(C(F)(F)F)cn(C)c5=O)n(C)c4c3Cl)c12` [Example I-128, 3-((7-chloro-1-methyl-6-((4-(methylamino)pyrazolo[1,5-a]pyrazin-3-yl)oxy)-1H-imidazo[4,5-b]pyridin-2-yl)amino)-1-methyl-5-(trifluoromethyl)pyridin-2(1H)-one], the Kd was less than 10 nM. The figure for `Cn1c(Nc2nc([C@H]3CCOC3)c(C(C)(C)C)s2)nc2ncc(Oc3cnn4ccnc4c3)c(Cl)c21` (single isomer, unassigned) [Example I-56-a] is 10 to 50 nM; for `Cn1c(Nc2cc(N3CCC(O)CC3)cc(C(F)(F)F)c2)nc2ncc(Oc3cnn4ccncc34)c(Cl)c21` [Example I-237, 1-(3-((7-chloro-1-methyl-6-(pyrazolo[1,5-a]pyrazin-3-yloxy)-1H-imidazo[4,5-b]pyridin-2-yl)amino)-5-(trifluoromethyl)phenyl)piperidin-4-ol] it is 10 to 50 nM; for `Cn1c(Nc2cc3n(n2)CCCC3(F)F)nc2ncc(Oc3cnc4[nH]ncc4c3)c(C#N)c21` [Example I-370, 6-((1H-pyrazolo[3,4-b]pyridin-5-yl)oxy)-2-((4,4-difluoro-4,5,6,7-tetrahydropyrazolo[1,5-a]pyridin-2-yl)amino)-1-methyl-1H-imidazo[4,5-b]pyridine-7-carbonitrile] it is less than 10 nM. The result for `CNc1nccn2ncc(Oc3cnc4nc(Nc5cc(C(F)(F)F)n(C6CC7(COC7)C6)n5)n(C)c4c3Cl)c12` [Example I-236, N-(1-(2-oxaspiro[3.3]heptan-6-yl)-5-(trifluoromethyl)-1H-pyrazol-3-yl)-7-chloro-1-methyl-6-((4-(methylamino)pyrazolo[1,5-a]pyrazin-3-yl)oxy)-1H-imidazo[4,5-b]pyridin-2-amine] reads less than 10 nM; that for `COCCN1CC[C@H](n2nc(Nc3nc4ncc(Oc5cnn6ccncc56)c(C(F)F)c4n3C)cc2C(C)(C)C)C1` [Example I-51, (S)—N-(5-(tert-butyl)-1-(1-(2-methoxyethyl)pyrrolidin-3-yl)-1H-pyrazol-3-yl)-7-(difluoromethyl)-1-methyl-6-(pyrazolo[1,5-a]pyrazin-3-yloxy)-1H-imidazo[4,5-b]pyridin-2-amine], 10 to 50 nM.
